Results: ChEMBL document CHEMBL3085654, “Synthesis and evaluation of N-acylamino acids derivatives of triazenes. Activation by tyrosinase in human melanoma cell lines” (Eur J Med Chem, 2013)
The source made the active and inactive calls. No cut-off for these calls is given here.

Assays:
[1] = Octanol-phosphate buffer apparent partition coefficient, log P of the compound at pH7.4 after 30 mins by HPLC analysis; assay type: physicochemical; conditions: pH 7.4
[2] = Half life in PBS buffer at 10^-5 M at pH 7.4 by HPLC analysis; assay type: ADME
[3] = Half life in 80% human plasma at 10^-5 M by HPLC analysis; assay type: ADME, cell-free
[4] = Stability in phosphate buffer assessed as mushroom tyrosinase-mediated prodrug conversion at 10^-5 M at pH 7.4 after 1 hr by HPLC analysis in presence of mushroom tyrosinase; assay type: ADME; conditions: agaricus bisporus, pH 7.4, 1 h, 10 µM
SK-MEL-30 [5] = assay: Induction of apoptosis in human SK-MEL-30 cells assessed as apoptotic/necrotic cells at 100 uM after 48 hrs by APC-labeled annexin V and 7-AAD staining-based flow cytometric analysis relative to control; assay type: functional
MNT1 [6] = assay: Induction of apoptosis in human MNT1 cells assessed as apoptotic/necrotic cells after 48 hrs by APC-labeled annexin V and 7-AAD staining-based flow cytometric analysis; assay type: functional, cell-based
[7] = (§1) Induction of apoptosis in human MNT1 cells assessed as apoptotic/necrotic cells at 100 uM after 48 hrs by APC-labeled annexin V and 7-AAD staining-based flow cytometric analysis relative to control; assay type: functional
SK-MEL-30 [8] = assay: Induction of apoptosis in human SK-MEL-30 cells assessed as apoptotic/necrotic cells at 50 uM after 48 hrs by APC-labeled annexin V and 7-AAD staining-based flow cytometric analysis relative to control; assay type: functional
M8 = assay: Induction of apoptosis in human M8 cells assessed as apoptotic/necrotic cells at 50 to 100 uM after 48 hrs by APC-labeled annexin V and 7-AAD staining-based flow cytometric analysis; assay type: functional, cell-based
[9] = (§2) Induction of apoptosis in human MNT1 cells assessed as apoptotic/necrotic cells at 50 uM after 48 hrs by APC-labeled annexin V and 7-AAD staining-based flow cytometric analysis relative to control; assay type: functional
[10] = Half life in phosphate buffer assessed as mushroom tyrosinase-mediated prodrug conversion at 10^-5 M at pH 7.4 by HPLC analysis; assay type: ADME; conditions: agaricus bisporus, pH 7.4, 10 µM
MNT1 [11] = assay: as §1; assay type: functional
MNT1 [12] = assay: as §2; assay type: functional
[13] = Chemical stability in PBS buffer at 10^-5 M at pH 7.4 after 15 days by HPLC analysis; assay type: physicochemical; conditions: pH 7.4, 360 h, 10 µM
[14] = substrate: CC(=O)N[C@@H](Cc1ccc(O)cc1)C(=O)N(C)/N=N/c1ccc(C#N)cc1; assay: (§3) Ratio of Kcat to Km for mushroom tyrosinase; conditions: Agaricus bisporus
[15] = substrate: COC(=O)c1ccc(/N=N/N(C)C(=O)[C@H](Cc2ccc(O)cc2)NC(C)=O)cc1; assay: as §3; conditions: Agaricus bisporus
[16] = substrate: CC(=O)N[C@@H](Cc1ccc(O)cc1)C(=O)N(C)/N=N/c1ccc(C#N)cc1; assay: (§4) Activity at mushroom tyrosinase by Michaelis-Menten plot analysis; conditions: Agaricus bisporus
[17] = substrate: NCCc1ccc(O)cc1; assay: as §4; conditions: Agaricus bisporus
[18] = substrate: N[C@@H](Cc1ccc(O)cc1)C(=O)O; assay: as §4; conditions: Agaricus bisporus
[19] = substrate: COC(=O)c1ccc(/N=N/N(C)C(=O)[C@H](Cc2ccc(O)cc2)NC(C)=O)cc1; assay: as §4; conditions: Agaricus bisporus
[20] = substrate: NCCc1ccc(O)c(O)c1; assay: as §4; conditions: Agaricus bisporus

Row | Molecule | logD at 0.5 h [1] | half-life at 10 µM [2] [h] | half-life at 10 µM [3] [h] | Activity (MNT1 [6]) | Activity [7] [%] | Activity [9] [%] | t1/2 [10] [h] | further results
1 | CC(=O)c1ccc(/N=N/N(C)C(=O)[C@H](Cc2ccc(O)cc2)NC(=O)OC(C)(C)C)cc1 | 3.85 | 72.2 | 9.54 | – | – | – | – | Stability [4]: Stable
2 | CC(=O)N[C@@H](Cc1ccc(O)cc1)C(=O)N(C)/N=N/c1ccc(C#N)cc1 | 2.14 | 42.7 | 1.23 | Dose-dependent effect | 17.01 | 8.5 | 0.26 | Activity (SK-MEL-30 [5]): 12.47%; Activity (SK-MEL-30 [8]): 10.41%; Activity (M8): inactive
3 | Cn1nnc2c(C(N)=O)ncn2c1=O | – | – | – | – | – | – | – | Activity (SK-MEL-30 [5]): Active; Activity (MNT1 [11]): Active; Activity (SK-MEL-30 [8]): Active; Activity (M8): Active; Activity (MNT1 [12]): Active
4 | CC(=O)N[C@@H](Cc1ccc(O)cc1)C(=O)N(C)/N=N/c1ccc(Br)cc1 | 3.36 | – | 6.8 | – | – | – | 0.148 | Stability [13]: Stable
5 | COC(=O)c1ccc(/N=N/N(C)C(=O)[C@H](Cc2ccc(O)cc2)NC(C)=O)cc1 | 2.12 | 75.1 | 2.8 | – | – | – | 0.305 | –
6 | CC(=O)N[C@@H](Cc1ccc(O)cc1)C(=O)N(C)/N=N/c1ccc(C(C)=O)cc1 | 2.33 | 56.6 | 1.41 | Dose-dependent effect | 11.23 | 7.88 | 0.33 | –
7 | CC(=O)N[C@@H](Cc1ccc(O)cc1)C(=O)N(C)/N=N/c1ccc(C(N)=O)cc1 | 1.27 | 40.6 | 5.19 | – | – | – | 0.29 | –
8 | CN(/N=N/c1ccc(C#N)cc1)C(=O)[C@H](Cc1ccc(O)cc1)NC(=O)OC(C)(C)C | 3.9 | 48.5 | 8.1 | – | – | – | – | Stability [4]: Stable
9 | CCOC(=O)c1ccc(/N=N/N(C)C(=O)[C@H](Cc2ccc(O)cc2)NC(C)=O)cc1 | 2.96 | 70.3 | 5.32 | Dose-dependent effect | 21.23 | 17.46 | 0.3 | –
10 | Tyrosinase (Agaricus bisporus), O42713 (protein) MSLIATVGPTGGVKNRLNIVDFVKNEKFFTLYVRSLELLQAKEQHDYSSFFQLAGIHGLPFTEWAKERPSMNLYKAGYCTHGQVLFPTWHRTYLSVLEQILQGAAIEVAKKFTSNQTDWVQAAQDLRQPYWDWGFELMPPDEVIKNEEVNITNYDGKKISVKNPILRYHFHPIDPSFKPYGDFATWRTTVRNPDRNRREDIPGLIKKMRLEEGQIREKTYNMLKFNDAWERFSNHGISDDQHANSLESVHDDIHVMVGYGKIEGHMDHPFFAAFDPIFWLHHTNVDRLLSLWKAINPDVWVTSGRNRDGTMGIAPNAQINSETPLEPFYQSGDKVWTSASLADTARLGYSYPDFDKLVGGTKELIRDAIDDLIDERYGSKPSSGARNTAFDLLADFKGITKEHKEDLKMYDWTIHVAFKKFELKESFSLLFYFASDGGDYDQENCFVGSINAFRGTAPETCANCQDNENLIQEGFIHLNHYLARDLESFEPQDVHKFLKEKGLSYKLYSRGDKPLTSLSVKIEGRPLHLPPGEHRPKYDHTQARVVFDDVAVHVIN | – | – | – | – | – | – | – | kcat/Km [14]: 151 M⁻¹ s⁻¹; kcat/Km [15]: 246 M⁻¹ s⁻¹; Km [16]: 200 µM; Vmax [16]: 5.4 ×10⁻⁶ mM/min; kcat [16]: 0.03 s⁻¹; Km [17]: 540 µM; Km [18]: 250 µM; Km [19]: 220 µM; Vmax [19]: 9.7 ×10⁻⁶ mM/min; kcat [19]: 0.05 s⁻¹; Km [20]: 280 µM
